Measured values taken from the supplement of paper PMC11061612.

Experiments:
Test in all cases: combination Emax (second highest fraction inhibited in the dose matrix, 72 h); higher = more inhibition; extreme values may be limits of the assay
[1] = tested on: NCI-H2342 (Lung Adenocarcinoma)
How it was run: (§1)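 Bliss excess equals the observed combination effect minus the expected value EA + EB − EA·EB, where EA and EB are the effects of each agent alone. Combination Emax is the second-highest inhibition within the matrix. Inhibition was scaled from CellTiter-Glo 2.0 luminescence, with 0 set by vehicle wells and 1 by blank wells, after 72 hours of two-drug dosing of cells plated in 1536-well plates.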

[2] = tested on: RCM-1 (Colorectal Carcinoma)
How it was run: as §1

[3] = tested on: SU-DHL-10 (B-Cell Non-Hodgkin's Lymphoma)
How it was run: as §1

[4] = tested on: RKN (Other Solid Carcinomas)
How it was run: as §1

SF539 (Glioblastoma) = tested on: SF539 (Glioblastoma)
How it was run: as §1

[5] = tested on: HEC-1 (Endometrial Carcinoma)
How it was run: as §1

[6] = tested on: PSN1 (Pancreatic Carcinoma)
How it was run: as §1

WM793B (Melanoma) = tested on: WM793B (Melanoma)
How it was run: as §1

[7] = tested on: LK-2 (Squamous Cell Lung Carcinoma)
How it was run: as §1

[8] = tested on: COLO-680N (Esophageal Squamous Cell Carcinoma)
How it was run: as §1

[9] = tested on: MFE-280 (Endometrial Carcinoma)
How it was run: as §1

[10] = tested on: PC-3_[JPC-3] (Lung Adenocarcinoma)
How it was run: as §1

SF268 (Low Grade Glioma) = tested on: SF268 (Low Grade Glioma)
How it was run: as §1

[11] = tested on: CAL-62 (Thyroid Gland Carcinoma)
How it was run: as §1

IST-MES1 (Mesothelioma) = tested on: IST-MES1 (Mesothelioma)
How it was run: as §1

[12] = tested on: OPM-2 (Plasma Cell Myeloma)
How it was run: as §1

[13] = tested on: OAW-42 (Ovarian Carcinoma)
How it was run: as §1

[14] = tested on: LB996-RCC (Kidney Carcinoma)
How it was run: as §1

[15] = tested on: GP5d (Colorectal Carcinoma)
How it was run: as §1

[16] = tested on: FADU (Head and Neck Carcinoma)
How it was run: as §1

SMILES | combination Emax [1] | combination Emax [2] | combination Emax [3] | combination Emax [4] | combination Emax (SF539 (Glioblastoma)) | combination Emax [5] | combination Emax [6] | combination Emax (WM793B (Melanoma)) | combination Emax [7] | combination Emax [8] | combination Emax [9] | combination Emax [10] | combination Emax (SF268 (Low Grade Glioma)) | combination Emax [11] | combination Emax (IST-MES1 (Mesothelioma)) | combination Emax [12] | combination Emax [13] | combination Emax [14] | combination Emax [15] | combination Emax [16]
COc1nnc2ccc(N3CCC(c4ccc(OCCN5CCN(C)C(=O)[C@H]5C)cc4)CC3)nn12 [AZD5153] + C[C@@H]1COCCN1C2=NC(=NC(=C2)C3(CC3)[S@](=N)(=O)C)C4=C5C=CNC5=NC=C4 [AZD6738] (first compound max 1 µM, 7x7, partner max 10 µM) | 0.673 | 0.674 | 1 | 0.562 | 0.882 | 0.884 | 0.586 | 0.827 | 0.784 | 0.383 | 0.425 | 0.5 | 0.773 | 0.895 | 0.644 | 1 | 0.702 | 0.731 | 0.855 | 0.642
COc1nnc2ccc(N3CCC(c4ccc(OCCN5CCN(C)C(=O)[C@H]5C)cc4)CC3)nn12 [AZD5153] + Cc1c2c(nn1C)CSCc1cc(n(C)n1)CSc1cc(c3ccccc3c1)OCCCc1c(C(=O)O)n(C)c3c-2c(Cl)ccc13 [AZD5991] (first compound max 1 µM, 7x7, partner max 1 µM) | 0.563 | 0.619 | 1 | 0.495 | 0.638 | 0.942 | 0.506 | 0.688 | 0.413 | 0.37 | 0.45 | 0.39 | 0.569 | 0.795 | 0.96 | 1 | 0.615 | 0.491 | 0.961 | 0.975
COc1nnc2ccc(N3CCC(c4ccc(OCCN5CCN(C)C(=O)[C@H]5C)cc4)CC3)nn12 [AZD5153] + Cn1cnc2c(F)c(Nc3ccc(Br)cc3Cl)c(C(=O)NOCCO)cc21 [Selumetinib] (first compound max 1 µM, 7x7, partner max 10 µM) | 0.347 | 0.817 | 1 | 0.577 | 0.653 | 0.595 | 0.818 | 0.786 | 0.6 | 0.378 | 0.361 | 0.525 | 0.518 | 0.844 | 0.641 | 1 | 0.426 | 0.482 | 0.887 | 0.629
Cc1c2c(nn1C)CSCc1cc(n(C)n1)CSc1cc(c3ccccc3c1)OCCCc1c(C(=O)O)n(C)c3c-2c(Cl)ccc13 [AZD5991] + C1CN(CCC1(C(=O)N[C@@H](CCO)C2=CC=C(C=C2)Cl)N)C3=NC=NC4=C3C=CN4 [Capivasertib] (first compound max 1 µM, 7x7, partner max 3 µM) | 0.298 | 0.307 | 1 | 0.173 | 0.573 | 0.0757 | 0.241 | 0.31 | 0.121 | 0.139 | 0.461 | 0.203 | 0.216 | 0.152 | 0.138 | 1 | 0.37 | 0.433 | 0.733 | 1
Cc1c2c(nn1C)CSCc1cc(n(C)n1)CSc1cc(c3ccccc3c1)OCCCc1c(C(=O)O)n(C)c3c-2c(Cl)ccc13 [AZD5991] + C=CCn1c(=O)c2cnc(Nc3ccc(N4CCN(C)CC4)cc3)nc2n1-c1cccc(C(C)(C)O)n1 [AZD1775] (first compound max 1 µM, partner max 1 µM) | 0.306 | 0.536 | 1 | 0.223 | 1 | 0.247 | 0.475 | 0.582 | 0.88 | 0.287 | 0.469 | 0.466 | 0.577 | 0.766 | 0.31 | 1 | 0.502 | 0.856 | 0.977 | 0.963
Cc1c2c(nn1C)CSCc1cc(n(C)n1)CSc1cc(c3ccccc3c1)OCCCc1c(C(=O)O)n(C)c3c-2c(Cl)ccc13 [AZD5991] + CC1(C)CCC(CN2CCN(c3ccc(C(=O)NS(=O)(=O)c4ccc(NCC5CCOCC5)c([N+](=O)[O-])c4)c(Oc4cnc5[nH]ccc5c4)c3)CC2)=C(c2ccc(Cl)cc2)C1 [Venetoclax] (first compound max 1 µM, 7x7, partner max 1 µM) | 0.262 | 0.171 | 1 | 0.146 | 0.544 | 0.173 | 0.145 | 0.261 | 0.302 | 0.0971 | 0.193 | 0.254 | 0.248 | 0.148 | 0.116 | 1 | 0.37 | 0.199 | 0.928 | 0.946
Cc1c2c(nn1C)CSCc1cc(n(C)n1)CSc1cc(c3ccccc3c1)OCCCc1c(C(=O)O)n(C)c3c-2c(Cl)ccc13 [AZD5991] + CCN(CCO)CCCOc1ccc2c(Nc3cc(CC(=O)Nc4cccc(F)c4)[nH]n3)ncnc2c1 [AZD2811] (first compound max 1 µM, 7x7, partner max 1 µM) | 0.427 | 0.347 | 1 | 0.185 | 0.553 | 0.217 | 0.319 | 0.374 | 0.962 | 0.211 | 0.482 | 0.274 | 0.472 | 0.237 | 0.266 | 1 | 0.288 | 0.405 | 0.956 | 0.986
